Reference: patent US4640799A, “Carbapenem antibiotics” (priority 1985, dated 1987)

System: S. aureus A-9606
Assay: Protective effect in the intramuscular treatment of infected mice
Format: in vivo
Details: Staphylococcus aureus, A9606, im, i.m. 0 and 2 h postinfection, i.p. challenge ~9 × 10^7 (Ex. 4 and 5), read-out: PD50/treatment
Procedure: Treatment Schedule: *For compound of Ex. 2, mice were infected i.p. with
A20481. For compounds of Ex. 4 and 5, mice were infected i.p. with
(A9843A). Mice were treated i.m. with drugs 0 and 2 h postinfection.

Structure (SMILES) | ED50
C[C@@H](O)[C@H]1C(=O)N2C(C(=O)[O-])=C(SCC[N+]3(C)CC[S+]([O-])CC3)C[C@H]12 (single isomer, unassigned) [Ex. 5 comp. A] | 1.2 mg/kg
C[C@@H](O)[C@H]1C(=O)N2C(C(=O)[O-])=C(SCC[N+]3(C)CCN(C)CC3)C[C@H]12 [Ex. 4, (5R,6S)3-[2-(1,4-dimethyl-1-piperazinium)ethylthio]-6-[1-(R)-hydroxyethyl]-7-oxo-1-azabicyclo[3.2.0]hept-2-ene-2-carboxylate] | 1.6 mg/kg
C[C@@H](O)[C@H]1C(=O)N2C(C(=O)[O-])=C(SCC[N+]3(C)CCSCC3)C[C@H]12 [Ex. 2, 3-[2-(N-methyl-thiomorpholinium)ethylthio]-6α-[1'-(R)-hydroxyethyl]-7-oxo-1-azabicyclo[3.2.0]-hept-2-ene-2-carboxylate] | 0.72 mg/kg
